Patent EP0551200A1, “Protein phosphatase inhibitors for use in therapy” (priority 1992, dated 1993)

Experiments:
Egr-1 mRNA [1] = assay: Nuclear run-on analysis of transcription in Balb/c 3T3 cells; type: cell-based, mouse; conditions: 0.5 µM
Experimental: Nuclei were isolated from quiescent (0 h) and okadaic acid-treated (0.5 µM) Balb/c 3T3 cells under conditions described in the "Experimental Procedures" of Example 2. Nylon matrix containing the indicated plasmids were hybridized with the in vitro transcribed RNA and then autoradiographed. Control cells were also treated with DMEM containing […] of DMSO and RNA from these cells were also transcribed and hybridized to the various plasmids indicated.
Cell Cultures and Reagents. Human diploid foreskin fibroblasts were a gift from Dr J Vilcek (New York University, New York). The cells were grown in MEM supplemented with 10% fetal bovine serum (Hyclone, Logan, UT, US), Mouse Balb/c 3T3 cells were purchased from the American Type Culture Collection and grown in Dulbecco's MEM (DMEM) supplemented with 10% fetal bovine serum. Okadaic acid, calyculin A, H7, and HA1004 were purchased from Biomol Research Laboratories (Plymouth Meeting, PA, US). TPA, puromycin and dBt-cAMP were purchased from Sigma (St Louis, MO, US) 1 mM stock solutions of okadaic acid or calyculin A were solubilized in DMSO. [³²P]orthophosphate and other radioactive chemicals were purchased from Du Pont-New England Nuclear (Boston, MA). Preparation of RNA and Northern Analysis. Balb/c 3T3 cells were grown to near confluency in DMEM supplemented with 10% fetal calf serum. The cells were then maintained in DMEM without serum for 48 h followed by treatment with the indicated agonists for the times indicated. Similarly human fibroblasts were maintained in MEM supplemented with 10% fetal bovine serum. Nearly confluent human fibroblasts were maintained for 2 days in MEM supplemented with 0.25% fetal bovine serum before treatment with agonists. The cells were harvested and total cytoplasmic RNA was isolated and subjected to Northern analysis as previously described (Chomczynski et al, Anal. Biochem. 162, 156-159, 1987). The blots were autoradiographed and quantitated with the aid of the Visage 2000 Image System (BioImage Products, Ann Arbor, MI, US). Nuclear Run-on Analysis of Transcription. […]

Egr-1 mRNA [2] = assay: Stability of induced Egr-1 mRNA after actinomycin D, Northern blot, Balb/c 3T3 cells; type: cell-based, mouse; conditions: actinomycin D 25 µg/ml
Experimental: (A). Quiescent Balb/c 3T3 cells were incubated with either 0.5 µM of okadaic acid or 20% serum for 3 h or 0.5 h, respectively. Actimomycin D (final concentration being 25 µg/ml) was then added. The cells were then harvested at 0.5, 1, 1.5, 2 and 3 h after the addition of actinomycin D. RNA was isolated from these cells and analyzed by Northern blot. The blot was probed with Egr-1 or GADPH cDNA.
Quiescent mouse Balb/c 3T3 fibroblasts were incubated with DMEM containing either 0.5µM okadaic acid or 10% fetal calf serum for the times indicated in Fig. 10. […] Cells were harvested at the indicated time points and extracted for RNA and the RNA subjected to Northern blot analysis (Fig. 10).

Egr-1 protein = assay: Western blot analysis of Egr-1 protein from primary human fibroblasts; type: cell-based
Experimental: Quiescent primary human fibroblasts were incubated with MEM containing 0.5 µM of okadaic acid for the times indicated. As a positive control, the quiescent cells were also incubated with medium containing 20% fetal calf serum for 2 h. Total cellular proteins were extracted and subjected to Western blot analysis as described previously (Cao et al, Mol. Cell. Biol. 10, 1931-1939, 1989). The blot was reacted with anti-Egr-1 polyclonal antibody (R5232).
Cellular proteins were extracted from quiescient, okadaic acid-treated and serum-treated human fibroblasts and subjected to Western blot analysis using rabbit polyclonal Egr-1 antibodies. In the control quiescent cells, traces of Egr-1 protein with molecular masses of 80 kDa and 100 kDa were detected. An approximately 6-fold increase of the 80 kDa protein was measured in the cells 2 h after serum stimulation. An approximately 2-fold increase in the 80 kDa Egr-1 protein was detected in the cells after 1 h okadaic acid treatment. However, at 2.5 h after okadaic acid treatment the Egr-1 protein was mostly detected as the 100 kDa moiety rather than as the 80 kDa protein (Fig. 13). […] By 6 h after okadaic acid treatment the cellular level of the 100 kDa Egr-1 protein was reduced (Fig. 13). […]

SMILES: C=C1[C@@H](O)[C@@H]2O[C@]3(CC[C@H](/C=C/[C@@H](C)[C@@H]4CC(C)=C[C@@]5(O[C@H](C[C@@](C)(O)C(=O)O)CC[C@H]5O)O4)O3)CC[C@H]2O[C@@H]1[C@@H](O)C[C@H](C)[C@H]1O[C@@]2(CCCCO2)CC[C@H]1C [okadaic acid]
- time at which a trace of newly transcribed Egr-1 mRNA was detectable (Egr-1 mRNA [1]): 0.5 h
- time by which significant amounts of Egr-1 mRNA were transcribed (Egr-1 mRNA [1]): ≤ 1 h
- time of maximum transcription of Egr-1 mRNA (Egr-1 mRNA [1]): 4 h
- time for which induced Egr-1 mRNA is detectable after actinomycin D treatment (Egr-1 mRNA [2]; 0.5 µM): up to 5.5 h
- half life of the induced Egr-1 message (Egr-1 mRNA [2]; calculated from the data in Fig. 10): about 120 min
- level of the 100 kDa Egr-1 protein relative to the 80 kDa Egr-1 protein of control cells (Egr-1 protein; 0.5 µM, 2.5 h): 3 to 4 fold
- fold induction at 0.5 µM (Egr-1 protein; Homo sapiens, Fibroblast, 1 h, read-out: increase in the 80 kDa Egr-1 protein): ~2
